The results in this text go back to ChEMBL document CHEMBL2311533, “Pentacyclic hemiacetal sterol with antifouling and cytotoxic activities from the soft coral Nephthea sp” (Bioorg Med Chem Lett, 2013).

Each structure is given as a SMILES string. Values after ≈ are worked out from the molar mass of the structure shown. Some results are limits rather than exact numbers.

The subject of one data set is HeLa. Description: Cytotoxicity against human HeLa cells incubated for 48 hrs by MTT assay. In kind it is functional, cell-based. (In general: Tetrazolium dyes change colour on reduction, which living cells bring about.)
Data set [1] in a line: Selectivity index, ratio of cytotoxic LC50 to antifouling EC50 in Bugula neritina larvae.
A short description of data set [2]: Toxicity against Bugula neritina larvae.
Data set [3] can be described thus: Antifouling activity against Bugula neritina larvae. It counts as functional.

The IC50 is the concentration that gives 50% inhibition. Read a high IC50 as weaker potency in that assay. The LC50 is the concentration lethal to half of the exposed cells or organisms. One may read the EC50 as the concentration that produces a half-maximal response. Read a low EC50 as an effect from little substance. Consider `CC(C)CC[C@H]1OC(O)[C@]23CC[C@H]4[C@@H](CCC5=CC(=O)C=C[C@@]54C)[C@@H]2CC[C@@H]3[C@@H]1C` (mixture of isomers) [NEPHTHOACETAL], for which inhibition in the data set on HeLa was half-maximal at 12.3 µg/mL (IC50). In data set [1], the “Selectivity Index” value is recorded as over 10. For the same compound, in data set [2], the LC50 was over 25 µg/mL. Moreover, the EC50 in data set [3] stood at 2.5 µg/mL.
On to `CC(=O)O[C@H]1O[C@H](CCC(C)C)[C@@H](C)[C@H]2CC[C@H]3[C@@H]4CCC5=CC(=O)C=C[C@]5(C)[C@H]4CC[C@]123`, for which the IC50 with HeLa is 19.6 µg/mL (≈ 43.1 µM). This compound returned an LC50 in data set [2] of over 25 µg/mL. Besides, the EC50 in data set [3] was over 25 µg/mL.
In the data set with HeLa, `CC(=O)O[C@@H]1O[C@H](CCC(C)C)[C@@H](C)[C@H]2CC[C@H]3[C@@H]4CCC5=CC(=O)C=C[C@]5(C)[C@H]4CC[C@]123` displayed an IC50 of 10.1 µg/mL (≈ 22.2 µM). In addition, in data set [2], the LC50 was over 25 µg/mL. The EC50 in data set [3] was over 25 µg/mL.
